Active and inactive are the calls of the source. The rule behind the calls is not given here.
Legend:
U-251 [1] = experiment: Induction of histone H4 hyperacetylation in human U251 cells at 100 uM after 4 hrs by Western blot relative to control; format: functional
U-251 [2] = experiment: Inhibition of 26S proteasome activity in human U251 cells at 100 uM after 48 hrs relative to control; format: cell-based; conditions: values are per cent of control
U-251 [3] = experiment: Induction of necrosis in human U251 cells assessed as necrotic cells at 100 uM after 48 hrs using annexin-V FITC and PI staining by flow cytometry in presence of Ac-LEHD-CHO; format: functional
U-251 [4] = experiment: Induction of apoptosis in human U251 cells assessed as increase in cleaved caspase 3 level after 24 hrs by Western blot; format: functional, cell-based
U-251 [5] = experiment: Inhibition of 26S proteasome activity in human U251 cells at 100 uM after 48 hrs in presence of N-acetyl-L-cysteine relative to control; format: cell-based; conditions: values are per cent of control
U-251 [6] = experiment: Increase in ROS production in human U251 cells at 50 uM after 4 hrs by FACS flow cytometry in presence of N-acetyl-L-cysteine; format: functional, cell-based
U-251 [7] = experiment: Induction of apoptosis in human U251 cells assessed as early apoptotic cells at 100 uM after 48 hrs using annexin-V FITC and PI staining by flow cytometry; format: functional
U-251 [8] = experiment: Induction of necrosis in human U251 cells assessed as necrotic cells at 100 uM after 48 hrs using annexin-V FITC and PI staining by flow cytometry in presence of Z-Asp-2,6-dichlorobenzoyloxymethylketone; format: functional
U-251 [9] = experiment: Induction of apoptosis in human U251 cells assessed as increase in cleaved caspase 9 level after 24 hrs by Western blot; format: functional, cell-based
U-251 [10] = experiment: Induction of necrosis in human U251 cells assessed as necrotic cells at 100 uM after 48 hrs using annexin-V FITC and PI staining by flow cytometry; format: functional
U-251 [11] = experiment: Induction of apoptosis in human U251 cells assessed as increase in full length caspase 8 level after 24 hrs by Western blot; format: functional, cell-based
U-251 [12] = experiment: Induction of apoptosis in human U251 cells assessed as late apoptotic cells at 100 uM after 48 hrs using annexin-V FITC and PI staining by flow cytometry in presence of Ac-LEHD-CHO; format: functional
U-251 [13] = experiment: Induction of apoptosis in human U251 cells assessed as late apoptotic cells at 100 uM after 48 hrs using annexin-V FITC and PI staining by flow cytometry in presence of Z-Asp-2,6-dichlorobenzoyloxymethylketone; format: functional
U-251 [14] = experiment: Induction of apoptosis in human U251 cells assessed as late apoptotic cells at 100 uM after 48 hrs using annexin-V FITC and PI staining by flow cytometry; format: functional
MCF7 = experiment: Cytotoxicity against human MCF7 cells after 72 hrs by Hoechst test; format: functional, cell-based; conditions: MCF7, 72 h
U-251 [15] = experiment: Induction of apoptosis in human U251 cells assessed as mitochondrial membrane potential dissipation at 100 uM after 24 hrs using JC1 dye by FACS relative to control; format: functional
[16] = Cytotoxicity against human MCF7/DX cells after 72 hrs by Hoechst test; format: functional, cell-based
U-251 [17] = experiment: Increase in heme level in human U251 cells assessed as porphobilinogen deaminase level at 100 uM after 2 hrs by Western blot in presence of cycloheximide; format: functional, cell-based
HL-60 = experiment: Cytotoxicity against human HL60 cells after 72 hrs by MTT assay; format: functional, cell-based; conditions: HL-60, 72 h
U-251 [18] = experiment: Induction of apoptosis in human U251 cells assessed as viable cells at 100 uM after 48 hrs using annexin-V FITC and PI staining by flow cytometry in presence of Ac-LEHD-CHO; format: functional; conditions: U-251, 48 h, read-out: Activity
U-251 [19] = experiment: Induction of apoptosis in human U251 cells assessed as early apoptotic cells at 100 uM after 48 hrs using annexin-V FITC and PI staining by flow cytometry in presence of Z-Asp-2,6-dichlorobenzoyloxymethylketone; format: functional
U-251 [20] = experiment: Cytotoxicity against human U251 cells assessed as ROS production by Hoechst test in presence of N-acetyl-L-cysteine; format: functional, cell-based
U-251 [21] = experiment: Induction of apoptosis in human U251 cells assessed as viable cells at 100 uM after 48 hrs using annexin-V FITC and PI staining by flow cytometry in presence of Z-Asp-2,6-dichlorobenzoyloxymethylketone; format: functional; conditions: U-251, 48 h, read-out: Activity
U-251 [22] = experiment: Induction of apoptosis in human U251 cells assessed as viable cells at 100 uM after 48 hrs using annexin-V FITC and PI staining by flow cytometry; format: functional; conditions: U-251, 48 h, read-out: Activity
U-251 [23] = experiment: Increase in heme level in human U251 cells assessed as porphobilinogen deaminase level at 100 uM after 2 hrs by Western blot relative to control; format: functional
U-251 [24] = experiment: Induction of apoptosis in human U251 cells assessed as early apoptotic cells at 100 uM after 48 hrs using annexin-V FITC and PI staining by flow cytometry in presence of Ac-LEHD-CHO; format: functional
U-251 [25] = experiment: Cytotoxicity against human U251 cells after 72 hrs by Hoechst test; format: functional, cell-based; conditions: U-251, 72 h
U-251 [26] = experiment: Increase in protoporphyrin 9 levels in human U251 cells at 100 uM after 24 hrs relative to control; format: functional
U-251 [27] = experiment: Increase in protoporphyrin 9 levels in human U251 cells at 200 uM after 24 hrs relative to control; format: functional
U-251 [28] = experiment: Increase in ROS production in human U251 cells at 50 uM after 4 hrs by FACS flow cytometry; format: functional
U-251 [29] = experiment: Antiproliferative activity against human U251 cells assessed as PpIX release pretreated 72 hrs before 360-410 nm light photosensitization measured after 48 hrs by Hoechst test; format: functional, cell-based
U-251 [30] = experiment: Increase in CDKp21 expression levels in human U251 cells at 100 uM after 24 hrs by Western blot; format: functional, cell-based
U-251 [31] = experiment: Antiproliferative activity against human U251 cells assessed as PpIX release after 72 hrs by Hoechst test; format: functional, cell-based; conditions: U-251, 72 h

Structure (SMILES) | residual activity (U-251 [2]) [%] | Activity (U-251 [3]) [%] | residual activity (U-251 [5]) [%] | Activity (U-251 [7]) [%] | Activity (U-251 [8]) [%] | Activity (U-251 [10]) [%] | Activity (U-251 [12]) [%] | Activity (U-251 [13]) [%] | Activity (U-251 [14]) [%] | IC50 (MCF7) [µM] | IC50 [16] [µM] | IC50 (HL-60) [µM] | viability at 100 µM (U-251 [18]) [%] | Activity (U-251 [19]) [%] | Activity (U-251 [20]) | viability at 100 µM (U-251 [21]) [%] | viability at 100 µM (U-251 [22]) [%] | fold change (FC) (U-251 [23]) | Activity (U-251 [24]) [%] | IC50 (U-251 [25]) [µM] | further results
CC(C)(C)C(=O)OCOC(=O)CCC(=O)CN.Cl | 54 | 17 | 101 | 15 | 11 | 9 | 4 | 5 | 9 | 64 | 61 | 44 | 77 | 2 | inactive | 82 | 67 | 2 | 2 | 93 | Activity (U-251 [1]): inactive; Activity (U-251 [4]): Active; Activity (U-251 [6]): inactive; Activity (U-251 [9]): Active; Activity (U-251 [11]): Active; fold change (FC) (U-251 [15]): 3; Activity (U-251 [17]): Active
CCCC(CCC)C(=O)OC(C)OC(=O)CCC(=O)CN (configuration not stated) |  |  |  |  |  |  |  |  |  |  |  | 780 |  |  |  |  |  |  |  | 1040 | 
CCCC(=O)OC(C)OC(=O)CCC(=O)CN.Cl (configuration not stated) | 117 | 8 | 146 | 4 | 7 | 10 | 3 | 3 | 6 | 714 | 807 | 274 | 86 | 2 | Active | 88 | 80 | 2 | 3 | 728 | fold change (FC) (U-251 [1]): 1.4; fold change (FC) (U-251 [26]): 5; fold change (FC) (U-251 [27]): 7.8; Activity (U-251 [28]): Active; IC50 (U-251 [29]): 509 µM; Activity (U-251 [30]): Active; IC50 (U-251 [31]): 767 µM
CCCC(CCC)C(=O)OCOC(=O)CCC(=O)CN |  |  |  |  |  |  |  |  |  |  |  |  |  |  |  |  |  |  |  | 64 | 
